Where only a bound is given, the exact number is not on record here.

T1 sequence (P30935 whole entry): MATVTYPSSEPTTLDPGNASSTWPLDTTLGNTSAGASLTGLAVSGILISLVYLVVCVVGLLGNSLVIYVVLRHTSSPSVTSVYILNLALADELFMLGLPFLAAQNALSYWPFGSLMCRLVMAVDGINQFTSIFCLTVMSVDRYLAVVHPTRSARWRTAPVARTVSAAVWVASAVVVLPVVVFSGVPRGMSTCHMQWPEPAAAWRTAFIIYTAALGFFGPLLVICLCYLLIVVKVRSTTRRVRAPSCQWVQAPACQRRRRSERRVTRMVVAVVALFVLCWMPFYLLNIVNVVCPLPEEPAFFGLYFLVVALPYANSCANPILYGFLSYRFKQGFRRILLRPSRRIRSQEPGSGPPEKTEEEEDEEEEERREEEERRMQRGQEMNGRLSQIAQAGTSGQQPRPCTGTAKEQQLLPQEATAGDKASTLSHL
Sequence of Somatostatin receptor type 2 (P30874 whole entry): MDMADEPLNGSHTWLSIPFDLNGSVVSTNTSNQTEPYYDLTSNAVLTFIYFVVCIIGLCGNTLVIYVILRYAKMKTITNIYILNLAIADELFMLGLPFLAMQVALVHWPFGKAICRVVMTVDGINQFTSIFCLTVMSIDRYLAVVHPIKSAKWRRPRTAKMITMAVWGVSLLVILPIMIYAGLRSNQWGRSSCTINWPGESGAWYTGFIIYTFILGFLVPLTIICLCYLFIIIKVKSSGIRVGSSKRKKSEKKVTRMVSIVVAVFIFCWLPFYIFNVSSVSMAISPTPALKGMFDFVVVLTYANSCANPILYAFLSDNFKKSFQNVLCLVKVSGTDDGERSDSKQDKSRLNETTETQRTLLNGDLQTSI

The first data set addresses T1, Somatostatin receptor type 3 (Mus musculus, UniProt P30935). As to the kind of experiment: Antagonist activity at mouse SSTR3 expressed in CHO cells assessed as cAMP level by fluorescence analysis. It counts as functional, cell-based.
Conditions: not given
On to `Cn1cc(C2(c3cccc(C(=O)O)n3)N[C@@H](c3nc(-c4ccc(F)cc4)c[nH]3)Cc3c2[nH]c2ccccc32)cn1` (single isomer, unassigned; 2A), for which the IC50 stood at 34 nM.

For the compound `Cn1cc(C2(c3cccc(C(=O)O)n3)N[C@@H](c3nc(-c4ccc(F)cc4)c[nH]3)Cc3c2[nH]c2ccccc32)cn1` (single isomer, unassigned; 2B), the IC50 amounted to 111 nM.

Consider `Cn1cc(C2(c3cc(C(=O)O)ccn3)N[C@@H](c3nc(-c4ccc(F)cc4)c[nH]3)Cc3c2[nH]c2ccccc32)cn1` (single isomer, unassigned; 3A), for which the IC50 was 0.73 nM.

As to `Cn1cc(C2(c3cc(C(=O)O)ccn3)N[C@@H](c3nc(-c4ccc(F)cc4)c[nH]3)Cc3c2[nH]c2ccccc32)cn1` (single isomer, unassigned; 3B), the half-maximal inhibitory concentration (IC50) was found to be 17.1 nM.

For the compound `Cn1cc(C2(c3ccc(C(=O)O)cn3)N[C@@H](c3nc(-c4ccc(F)cc4)c[nH]3)Cc3c2[nH]c2ccccc32)cn1` (single isomer, unassigned; 5A), the 50% inhibitory concentration (IC50) is 57.1 nM.

For the compound `Cn1cc(C2(c3ccc(C(=O)O)cn3)N[C@@H](c3nc(-c4ccc(F)cc4)c[nH]3)Cc3c2[nH]c2ccccc32)cn1` (single isomer, unassigned; 5B), the concentration for half-maximal inhibition (IC50) stood at 1860 nM.

On to `CCOC(=O)c1cccc(C2(c3cnn(C)c3)N[C@@H](c3nc(-c4ccc(F)cc4)c[nH]3)Cc3c2[nH]c2ccccc32)n1` (single isomer, unassigned; 6A), for which the IC50 amounted to 0.58 nM.

In a further data set the test system is Mus musculus. In words: Antidiabetic activity in C57BL/6 mouse assessed as reduction in glucose excursion at 3 mg/kg, po by oGTT assay relative to control. The data set is classed as functional. The note with it: C57BL/6, read-out: INH.
For the compound `Cn1cc(C2(c3cc(C(=O)O)ccn3)N[C@@H](c3nc(-c4ccc(F)cc4)c[nH]3)Cc3c2[nH]c2ccccc32)cn1` (single isomer, unassigned; 3A), the inhibition in vivo at 3 mg/kg is 24%.

Tested on in another data set: not listed separately
As to the kind of experiment: Half life in mouse. The data set is classed as ADME, organism-based. The following applies: in vivo.
`Cn1cc(C2(c3cc(C(=O)O)ccn3)N[C@@H](c3nc(-c4ccc(F)cc4)c[nH]3)Cc3c2[nH]c2ccccc32)cn1` (single isomer, unassigned; 3A) showed a half-life of 2.62 h.

Tested on in another data set: not listed separately
As to the kind of experiment: Clearance in mouse. The data set is classed as ADME, organism-based. The note with it: in vivo.
Take `Cn1cc(C2(c3cc(C(=O)O)ccn3)N[C@@H](c3nc(-c4ccc(F)cc4)c[nH]3)Cc3c2[nH]c2ccccc32)cn1` (single isomer, unassigned; 3A): the clearance amounted to 15.6 mL/min/kg.

The test system of another data set is Canis familiaris. As to the kind of experiment: Toxicity in anesthetized vagus-intact cardiovascular dog model assessed as QTc interval prolongation at 909 uM plasma concentration. The data set is classed as organism-based, Canis lupus familiaris.
Conditions: not given
As to `Cn1cc(C2(c3cc(C(=O)O)ccn3)N[C@@H](c3nc(-c4ccc(F)cc4)c[nH]3)Cc3c2[nH]c2ccccc32)cn1` (single isomer, unassigned; 3A), the Activity result is given as “Non-toxic”.

Tested on in the next data set: not listed separately
In words: Plasma concentration in C57BL/6 mouse at 10 mg/kg, po after 2.5 hrs. On the set-up: dose 10 mg/kg, route oral.
Conditions: not given
It counts as ADME, organism-based.
As to `Cn1cc(C2(c3cc(C(=O)O)ccn3)N[C@@H](c3nc(-c4ccc(F)cc4)c[nH]3)Cc3c2[nH]c2ccccc32)cn1` (single isomer, unassigned; 3A), the concentration at 2.5 h was 0.003 µM.

Another data set concerns the target Somatostatin receptor type 2 (Homo sapiens, UniProt P30874).
Test: not given
Conditions: not given
It counts as cell-based, CHO.
As for `Cn1cc(C2(c3cc(C(=O)O)ccn3)N[C@@H](c3nc(-c4ccc(F)cc4)c[nH]3)Cc3c2[nH]c2ccccc32)cn1` (single isomer, unassigned; 3A), the IC50 is over 10000 nM.

Tested on in a further data set: not listed separately
As to the kind of experiment: Plasma concentration in C57BL/6 mouse at 3 mg/kg, po after 2.5 hrs. It counts as ADME, organism-based. Set-up: dose 3 mg/kg, route oral.
Conditions: not given
`Cn1cc(C2(c3cc(C(=O)O)ccn3)N[C@@H](c3nc(-c4ccc(F)cc4)c[nH]3)Cc3c2[nH]c2ccccc32)cn1` (single isomer, unassigned; 3A) came in with a concentration at 2.5 h of 0.002 µM.

Tested on in another data set: not listed separately
In words: in vivo. The note with it: dog, iv, 10 mg/kg.
In turn, `Cn1cc(C2(c3cc(C(=O)O)ccn3)N[C@@H](c3nc(-c4ccc(F)cc4)c[nH]3)Cc3c2[nH]c2ccccc32)cn1` (single isomer, unassigned; 3A) came in with a Cmax at 0.5 h of 38 µM.

The next data set deals with Mus musculus. As to the kind of experiment: Antidiabetic activity in C57BL/6 mouse assessed as reduction in glucose excursion at 10 mg/kg, po by oGTT assay relative to MK-4256. It counts as functional.
Conditions: not given
`Cn1cc(C2(c3cc(C(=O)O)ccn3)N[C@@H](c3nc(-c4ccc(F)cc4)c[nH]3)Cc3c2[nH]c2ccccc32)cn1` (single isomer, unassigned; 3A): the inhibition in vivo at 10 mg/kg was found to be 35%.

In another data set the test system is Mus musculus. In words: Antidiabetic activity in C57BL/6 mouse assessed as reduction in glucose excursion at 3 mg/kg, po by oGTT assay relative to MK-4256. The data set is classed as functional.
Conditions: not given
For the compound `Cn1cc(C2(c3cc(C(=O)O)ccn3)N[C@@H](c3nc(-c4ccc(F)cc4)c[nH]3)Cc3c2[nH]c2ccccc32)cn1` (single isomer, unassigned; 3A), the inhibition in vivo at 3 mg/kg worked out at 24%.

Tested on in another data set: not listed separately
In words: Oral bioavailability in mouse. The data set is classed as ADME, organism-based. The following applies: in vivo.
`Cn1cc(C2(c3cc(C(=O)O)ccn3)N[C@@H](c3nc(-c4ccc(F)cc4)c[nH]3)Cc3c2[nH]c2ccccc32)cn1` (single isomer, unassigned; 3A) came in with a bioavailability of 1.5%.

Tested on in another data set: not listed separately
In words: in vivo. The note with it: dog, iv, 50 mg/kg.
`Cn1cc(C2(c3cc(C(=O)O)ccn3)N[C@@H](c3nc(-c4ccc(F)cc4)c[nH]3)Cc3c2[nH]c2ccccc32)cn1` (single isomer, unassigned; 3A) yielded a Cmax at 0.5 h of 909 µM.

The target of another data set is Somatostatin receptor type 5 (Homo sapiens, UniProt P35346).
Sequence of Somatostatin receptor type 5 (P35346 whole entry): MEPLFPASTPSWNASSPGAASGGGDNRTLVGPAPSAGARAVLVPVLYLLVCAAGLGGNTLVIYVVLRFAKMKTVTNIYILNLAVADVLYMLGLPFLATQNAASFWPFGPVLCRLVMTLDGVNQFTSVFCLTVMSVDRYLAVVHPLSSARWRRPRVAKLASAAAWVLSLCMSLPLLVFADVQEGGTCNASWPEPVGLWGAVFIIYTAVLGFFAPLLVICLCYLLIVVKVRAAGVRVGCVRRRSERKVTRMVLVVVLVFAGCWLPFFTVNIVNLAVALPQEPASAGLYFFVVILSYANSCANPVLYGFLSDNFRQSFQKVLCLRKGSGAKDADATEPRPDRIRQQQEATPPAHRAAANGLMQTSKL
Test: not given
The data set is classed as cell-based, CHO.
Conditions: not given
Regarding `Cn1cc(C2(c3cc(C(=O)O)ccn3)N[C@@H](c3nc(-c4ccc(F)cc4)c[nH]3)Cc3c2[nH]c2ccccc32)cn1` (single isomer, unassigned; 3A), the IC50 is over 10000 nM.

Tested on in another data set: not listed separately
In words: Plasma concentration in C57BL/6 mouse at 1 mg/kg, ip after 2.5 hrs. It counts as ADME, organism-based. Set-up: dose 1 mg/kg, route intraperitoneal.
Conditions: not given
For `Cn1cc(C2(c3cc(C(=O)O)ccn3)N[C@@H](c3nc(-c4ccc(F)cc4)c[nH]3)Cc3c2[nH]c2ccccc32)cn1` (single isomer, unassigned; 3A), the concentration at 2.5 h stood at 0.074 µM.

Another data set deals with Mus musculus. In words: Antidiabetic activity in C57BL/6 mouse assessed as reduction in glucose excursion at 1 mg/kg, ip by oGTT assay relative to MK-4256. It counts as functional. The following applies: C57BL/6, ip, route intraperitoneal.
For `Cn1cc(C2(c3cc(C(=O)O)ccn3)N[C@@H](c3nc(-c4ccc(F)cc4)c[nH]3)Cc3c2[nH]c2ccccc32)cn1` (single isomer, unassigned; 3A), the inhibition in vivo at 1 mg/kg was determined as 64%.

Tested on in a further data set: not listed separately
In words: in vivo. The note with it: dog, iv, 20 mg/kg.
Turning to `Cn1cc(C2(c3cc(C(=O)O)ccn3)N[C@@H](c3nc(-c4ccc(F)cc4)c[nH]3)Cc3c2[nH]c2ccccc32)cn1` (single isomer, unassigned; 3A), the peak level (Cmax at 0.5 h) was 199 µM.

For the next data set, the target named is T2, Somatostatin receptor type 3 (Homo sapiens, UniProt P32745).
T2 sequence (P32745 whole entry): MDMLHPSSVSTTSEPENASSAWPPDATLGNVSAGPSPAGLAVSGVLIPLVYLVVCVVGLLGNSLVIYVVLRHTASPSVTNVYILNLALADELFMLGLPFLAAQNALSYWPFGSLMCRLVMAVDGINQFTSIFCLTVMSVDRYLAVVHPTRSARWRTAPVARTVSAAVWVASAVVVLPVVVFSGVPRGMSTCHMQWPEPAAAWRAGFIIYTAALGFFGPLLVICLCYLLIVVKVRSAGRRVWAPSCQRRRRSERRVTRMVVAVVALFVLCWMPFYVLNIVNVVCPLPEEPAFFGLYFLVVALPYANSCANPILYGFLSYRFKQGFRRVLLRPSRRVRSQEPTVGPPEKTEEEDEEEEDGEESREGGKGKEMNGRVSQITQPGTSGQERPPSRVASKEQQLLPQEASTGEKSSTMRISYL
Test: not given
Conditions: not given
As for `Cn1cc(C2(c3cccc(C(=O)O)n3)N[C@@H](c3nc(-c4ccc(F)cc4)c[nH]3)Cc3c2[nH]c2ccccc32)cn1` (single isomer, unassigned; 2A), half-maximal inhibition (IC50) was put at 67 nM.

On to `Cn1cc(C2(c3cccc(C(=O)O)n3)N[C@@H](c3nc(-c4ccc(F)cc4)c[nH]3)Cc3c2[nH]c2ccccc32)cn1` (single isomer, unassigned; 2B), for which inhibition was half-maximal at 105 nM (IC50).

Compound `Cn1cc(C2(c3cc(C(=O)O)ccn3)N[C@@H](c3nc(-c4ccc(F)cc4)c[nH]3)Cc3c2[nH]c2ccccc32)cn1` (single isomer, unassigned; 3A) gave a half-inhibitory concentration (IC50) of 1.71 nM.

As for `Cn1cc(C2(c3cc(C(=O)O)ccn3)N[C@@H](c3nc(-c4ccc(F)cc4)c[nH]3)Cc3c2[nH]c2ccccc32)cn1` (single isomer, unassigned; 3B), the half-inhibitory concentration (IC50) amounted to 52.3 nM.

The compound `CCOC(=O)c1cccc(C2(c3cnn(C)c3)N[C@@H](c3nc(-c4ccc(F)cc4)c[nH]3)Cc3c2[nH]c2ccccc32)n1` (single isomer, unassigned; 6A) came in with an IC50 of 1.97 nM.

The target of a further data set is Somatostatin receptor type 4 (Homo sapiens, UniProt P31391).
Sequence of Somatostatin receptor type 4 (P31391 whole entry): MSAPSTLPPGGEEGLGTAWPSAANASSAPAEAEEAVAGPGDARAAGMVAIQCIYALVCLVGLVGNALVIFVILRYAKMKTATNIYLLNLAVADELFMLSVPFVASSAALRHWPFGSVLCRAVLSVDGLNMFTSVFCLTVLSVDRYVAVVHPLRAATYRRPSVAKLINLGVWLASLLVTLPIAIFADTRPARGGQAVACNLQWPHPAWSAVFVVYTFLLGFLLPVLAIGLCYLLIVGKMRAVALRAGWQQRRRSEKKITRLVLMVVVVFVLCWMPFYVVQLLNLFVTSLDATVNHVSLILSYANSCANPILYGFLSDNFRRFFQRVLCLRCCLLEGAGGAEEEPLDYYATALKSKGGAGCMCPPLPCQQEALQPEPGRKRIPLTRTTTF
Test: not given
The data set is classed as cell-based, CHO.
Conditions: not given
As to `Cn1cc(C2(c3cc(C(=O)O)ccn3)N[C@@H](c3nc(-c4ccc(F)cc4)c[nH]3)Cc3c2[nH]c2ccccc32)cn1` (single isomer, unassigned; 3A), the IC50 is over 10000 nM.

A further data set deals with T1, Somatostatin receptor type 3.
Test: not given
The data set is classed as cell-based, CHO.
Conditions: not given
`Cn1cc(C2(c3cccc(C(=O)O)n3)N[C@@H](c3nc(-c4ccc(F)cc4)c[nH]3)Cc3c2[nH]c2ccccc32)cn1` (single isomer, unassigned; 2A) yielded an IC50 of 3.93 nM.

`Cn1cc(C2(c3cc(C(=O)O)ccn3)N[C@@H](c3nc(-c4ccc(F)cc4)c[nH]3)Cc3c2[nH]c2ccccc32)cn1` (single isomer, unassigned; 3A): the IC50 was found to be 1.72 nM.

Compound `CCOC(=O)c1cccc(C2(c3cnn(C)c3)N[C@@H](c3nc(-c4ccc(F)cc4)c[nH]3)Cc3c2[nH]c2ccccc32)n1` (single isomer, unassigned; 6A) yielded an IC50 of 0.41 nM.

For a further data set, the target named is Somatostatin receptor type 1 (Homo sapiens, UniProt P30872).
Sequence of Somatostatin receptor type 1 (P30872 whole entry): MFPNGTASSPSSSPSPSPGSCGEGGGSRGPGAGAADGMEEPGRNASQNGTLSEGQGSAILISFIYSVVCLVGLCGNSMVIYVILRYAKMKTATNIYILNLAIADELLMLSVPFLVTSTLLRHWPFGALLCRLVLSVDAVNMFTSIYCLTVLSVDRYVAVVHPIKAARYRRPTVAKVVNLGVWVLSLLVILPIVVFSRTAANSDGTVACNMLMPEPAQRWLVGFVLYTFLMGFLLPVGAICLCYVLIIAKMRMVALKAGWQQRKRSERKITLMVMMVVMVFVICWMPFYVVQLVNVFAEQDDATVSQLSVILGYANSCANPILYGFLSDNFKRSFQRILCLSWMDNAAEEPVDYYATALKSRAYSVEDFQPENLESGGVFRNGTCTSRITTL
Test: not given
The data set is classed as cell-based, CHO.
Conditions: not given
The compound `Cn1cc(C2(c3cc(C(=O)O)ccn3)N[C@@H](c3nc(-c4ccc(F)cc4)c[nH]3)Cc3c2[nH]c2ccccc32)cn1` (single isomer, unassigned; 3A) yielded an IC50 of over 10000 nM.

The target of the next data set is T2, Somatostatin receptor type 3. In words: biochemical.
Conditions: not given
As for `Cn1cc(C2(c3cccc(C(=O)O)n3)N[C@@H](c3nc(-c4ccc(F)cc4)c[nH]3)Cc3c2[nH]c2ccccc32)cn1` (single isomer, unassigned; 2A), the half-maximal inhibitory concentration (IC50) amounted to 4.41 nM.

`Cn1cc(C2(c3cccc(C(=O)O)n3)N[C@@H](c3nc(-c4ccc(F)cc4)c[nH]3)Cc3c2[nH]c2ccccc32)cn1` (single isomer, unassigned; 2B) registered a 50% inhibitory concentration (IC50) of 74.7 nM.

On to `Cn1cc(C2(c3cc(C(=O)O)ccn3)N[C@@H](c3nc(-c4ccc(F)cc4)c[nH]3)Cc3c2[nH]c2ccccc32)cn1` (single isomer, unassigned; 3A), for which it took 2.13 nM to reach half-maximal inhibition (IC50).

`Cn1cc(C2(c3cc(C(=O)O)ccn3)N[C@@H](c3nc(-c4ccc(F)cc4)c[nH]3)Cc3c2[nH]c2ccccc32)cn1` (single isomer, unassigned; 3B) returned a 50% inhibitory concentration (IC50) of 72.7 nM.

Compound `CCOC(=O)c1cccc(C2(c3cnn(C)c3)N[C@@H](c3nc(-c4ccc(F)cc4)c[nH]3)Cc3c2[nH]c2ccccc32)n1` (single isomer, unassigned; 6A) came in with an IC50 of 0.83 nM.

(Values after ChEMBL document CHEMBL3352784, “Investigation of Cardiovascular Effects of Tetrahydro-β-carboline sstr3 antagonists” (ACS Med Chem Lett, 2014).)
